The values that follow come from PubChem BioAssay (NCI).

Among the test systems are SK-OV-3 ovarian; A498 renal; HOP-92 NSCLC; RXF 393 renal; RPMI-8226 leukemia; TK-10 renal; UACC-257 melanoma; NCI-H23 lung; A549 NSCLC; CAKI-1 renal.
Experiment in all cases: NCI anticancer screen, dose series, 48 h

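Cultured in 96-well plates, cells were exposed to test compound for 48 hours across five concentrations. At the GI50, growth is halved. TGI: concentration producing complete growth inhibition.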

On to `CC(C)(C)C1CCC2(CC1)CCN(CCCN1CCOCC1)CC2`, for which the TGI is > 100 µM in the assay on SK-OV-3 ovarian; > 57.4 µM in the assay on A498 renal; > 63.9 µM with HOP-92 NSCLC; > 82.3 µM in the assay on RXF 393 renal; 63.8 µM in the assay with RPMI-8226 leukemia; > 100 µM with TK-10 renal. Also, the TGI with UACC-257 melanoma was 31.1 µM; with NCI-H23 lung, > 100 µM; with A549 NSCLC, > 88.8 µM; in the assay with CAKI-1 renal, > 88 µM.

As for `Cn1cnc([N+](=O)[O-])c1SCC(=O)O`, the TGI in the assay with SK-OV-3 ovarian, in the assay with A498 renal, in the assay with HOP-92 NSCLC, with RXF 393 renal, in the assay with RPMI-8226 leukemia and in the assay on TK-10 renal was > 100 µM each time. Moreover, the TGI in the assay with UACC-257 melanoma, in the assay on NCI-H23 lung, in the assay with A549 NSCLC and in the assay with CAKI-1 renal was > 100 µM in each case.

Consider `C[C@H]1CCC/C=C/[C@@H]2C[C@H](O)C[C@H]2[C@H](O)[C@@H](S(=O)CCN)CC(=O)O1` (stereo partly drawn), for which the GI50 is 0.0245 µM with SK-OV-3 ovarian; 0.0322 µM in the assay on A498 renal; 0.274 µM in the assay with HOP-92 NSCLC; < 0.0141 µM in the assay with RXF 393 renal; 0.294 µM in the assay with RPMI-8226 leukemia; 0.0851 µM in the assay on TK-10 renal. In addition, the GI50 is < 0.0234 µM with UACC-257 melanoma, 0.044 µM with NCI-H23 lung, 0.0402 µM with A549 NSCLC and 0.0979 µM in the assay on CAKI-1 renal. In addition, the TGI in the assay with A498 renal was 0.126 µM; with HOP-92 NSCLC, > 100 µM; with RXF 393 renal it was 0.0456 µM; in the assay with RPMI-8226 leukemia it was 2.71 µM; in the assay on TK-10 renal it was 4.19 µM; in the assay on UACC-257 melanoma it was > 100 µM. In addition, the TGI with NCI-H23 lung is 1.74 µM; in the assay on A549 NSCLC it was > 100 µM.

Turning to `C[n+]1cccc(/C=C/c2ccc3cccc(O)c3n2)c1`, the TGI with SK-OV-3 ovarian, in the assay with A498 renal, in the assay on HOP-92 NSCLC, in the assay on RXF 393 renal, with RPMI-8226 leukemia and in the assay on TK-10 renal was > 100 µM each time. Besides, the TGI in the assay on UACC-257 melanoma, with NCI-H23 lung, in the assay with A549 NSCLC and in the assay with CAKI-1 renal was > 100 µM in each case.

Regarding `O=C(c1cc(Br)ccc1O)c1cc(Br)ccc1O`, the TGI with SK-OV-3 ovarian was determined as 35.8 µM; in the assay with A498 renal it was 31.4 µM; in the assay on HOP-92 NSCLC, 27.1 µM; in the assay with RXF 393 renal, 27.9 µM; with RPMI-8226 leukemia, 30.4 µM; with TK-10 renal, 33 µM. Moreover, the TGI came out at 29.1 µM in the assay on UACC-257 melanoma, 35.4 µM in the assay with NCI-H23 lung, 32 µM in the assay on A549 NSCLC and 32.2 µM with CAKI-1 renal.

In the case of `COc1ccc(-n2c3c(c4cc(O)ccc42)C(=O)c2ccccc2C3=O)cc1`, the TGI in the assay with SK-OV-3 ovarian is 2.73 µM; with A498 renal it was 22.5 µM; in the assay on HOP-92 NSCLC, 47.5 µM; in the assay on RXF 393 renal, 18 µM; in the assay on RPMI-8226 leukemia, > 100 µM; in the assay with TK-10 renal it was 31.1 µM. In addition, the TGI with UACC-257 melanoma, with NCI-H23 lung, in the assay on A549 NSCLC and in the assay on CAKI-1 renal was > 100 µM in each case.

For the compound `CN(C)c1ccc(C2CC(=O)C(C#N)=C(c3ccccc3)NN2C)cc1` (stereo not drawn), the TGI with SK-OV-3 ovarian, with A498 renal, with HOP-92 NSCLC, with RXF 393 renal, with RPMI-8226 leukemia and in the assay on TK-10 renal was > 100 µM in each case. The TGI with UACC-257 melanoma, in the assay with NCI-H23 lung, in the assay with A549 NSCLC and in the assay on CAKI-1 renal was > 100 µM in each case.

Regarding `CCOC(=O)C1=C(C)N(C)C(=S)NC1c1cccc(O)c1` (stereo not drawn), the TGI in the assay on SK-OV-3 ovarian was > 100 µM; in the assay with A498 renal, 84 µM; with HOP-92 NSCLC it was 75.1 µM; in the assay with RXF 393 renal it was 52.4 µM; with RPMI-8226 leukemia it was > 100 µM; in the assay with TK-10 renal it was > 100 µM. In addition, the TGI in the assay with UACC-257 melanoma, with NCI-H23 lung, in the assay with A549 NSCLC and with CAKI-1 renal was > 100 µM throughout.

Take `CN(C)[C@@H]1C(=O)C(C(=O)NCNCCCC(=O)O)=C(O)[C@@]2(O)C(=O)C3=C(O)c4c(O)cccc4[C@@](C)(O)[C@H]3C[C@@H]12`: the TGI in the assay on SK-OV-3 ovarian, in the assay with A498 renal, in the assay on HOP-92 NSCLC, in the assay with RXF 393 renal, in the assay on RPMI-8226 leukemia and in the assay with TK-10 renal was > 100 µM in each case. In addition, the TGI with UACC-257 melanoma, with NCI-H23 lung, in the assay on A549 NSCLC and in the assay on CAKI-1 renal was > 100 µM in each case.
